# Results taken from article PMC7826463, “Pamiparib dose escalation in Chinese patients with non‐mucinous high‐grade ovarian cancer or advanced triple‐negative breast cancer” (Cancer Medicine, 2020).
# System: Chinese patients with advanced HGOC or TNBC
# Assay: Safety/tolerability (adverse events per NCI-CTCAE v4.03, DLTs) in phase 1 dose escalation (NCT03333915)
# Assay type: in vivo
# Details: for Discontinued treatment: Adverse event: count (percent)
# Text: This phase 1/2, open‐label, multicenter study assessed the safety and antitumor activity of pamiparib in Chinese patients ≥18 years with advanced solid tumors whose disease progressed despite standard therapy or for which there is no standard therapy. Phase 1 was a dose‐escalation study, with a 3 + 3 design, that evaluated the single‐agent safety/tolerability, pharmacokinetic (PK) profile, and preliminary antitumor activity of pamiparib and confirmed the RP2D in Chinese patients (Figure 1). The phase 2 dose‐expansion component of this study is investigating the single‐agent antitumor activity and safety/tolerability of pamiparib.
# In phase 1, patients received pamiparib at 20, 40, and 60 mg BID dose levels. The starting dose for pamiparib (20 mg BID) was selected as one‐third of the RP2D (60 mg BID) and one‐fourth of the MTD (80 mg BID), which were determined in the FIH study. […] Safety evaluations, including dose‐limiting toxicities (DLTs), of ≥3 patients completing one cycle of treatment at a specific dose level were required before proceeding to the next cohort with a higher dose level. Patients could continue the study treatment in 21‐day cycles and subsequent cycles at the discretion of the investigator.
# The primary objective in phase 1 was to evaluate the safety and tolerability of pamiparib. Safety and tolerability endpoint assessments were based on monitoring of treatment‐emergent adverse events (AEs), in addition to vital signs, electrocardiograms, physical examinations, and clinical laboratory results. The incidence and severity of all AEs and incidence of serious AEs were assessed according to the National Cancer Institute‐Common Terminology Criteria for Adverse Events v4.03.
# Approximately 14 to 18 evaluable patients were expected to enroll in the phase 1 part of the study. The safety population included all patients who received ≥1 dose of pamiparib. The PK population included all patients for whom valid pamiparib PK parameters could be estimated. Antitumor activity per RECIST v1.1 was assessed in all evaluable patients. Patients were considered response evaluable if they had measurable disease at baseline per RECIST v1.1 and had ≥1 post‐baseline tumor assessment, unless treatment had been discontinued due to clinical progression or death prior to tumor assessment. The population evaluable for CA‐125 response included patients in the safety population with baseline CA‐125 ≥2 x upper limit of normal.
smiles,measurement,setting,value
"C[C@]12CCCN1CC1=NNC(=O)c3cc(F)cc4[nH]c2c1c34 [pamiparib, Pamiparib]","Treatment-related adverse event Asthenia, All Grades",20 mg BID (n = 4),3 (75.0) n (%)
same,"Treatment-related adverse event Asthenia, Grade ≥3",20 mg BID (n = 4),0 n (%)
same,"Treatment-related adverse event Decreased appetite, All Grades",20 mg BID (n = 4),3 (75.0) n (%)
same,"Treatment-related adverse event Decreased appetite, Grade ≥3",20 mg BID (n = 4),0 n (%)
same,"Treatment-related adverse event Decreased hemoglobin, All Grades",20 mg BID (n = 4),0 n (%)
same,"Treatment-related adverse event Decreased hemoglobin, Grade ≥3",20 mg BID (n = 4),0 n (%)
same,"Treatment-related adverse event Decreased neutrophil count, All Grades",20 mg BID (n = 4),1 (25.0) n (%)
same,"Treatment-related adverse event Decreased neutrophil count, Grade ≥3",20 mg BID (n = 4),0 n (%)
same,"Treatment-related adverse event Decreased platelet count, All Grades",20 mg BID (n = 4),0 n (%)
same,"Treatment-related adverse event Decreased platelet count, Grade ≥3",20 mg BID (n = 4),0 n (%)
same,"Treatment-related adverse event Decreased white blood cell count, All Grades",20 mg BID (n = 4),2 (50.0) n (%)
same,"Treatment-related adverse event Decreased white blood cell count, Grade ≥3",20 mg BID (n = 4),0 n (%)
same,"Treatment-related adverse event Diarrhea, All Grades",20 mg BID (n = 4),0 n (%)
same,"Treatment-related adverse event Diarrhea, Grade ≥3",20 mg BID (n = 4),0 n (%)
same,"Treatment-related adverse event Increased GGT, All Grades",20 mg BID (n = 4),1 (25.0) n (%)
same,"Treatment-related adverse event Increased GGT, Grade ≥3",20 mg BID (n = 4),0 n (%)
same,"Treatment-related adverse event Increased conjugated bilirubin, All Grades",20 mg BID (n = 4),1 (25.0) n (%)
same,"Treatment-related adverse event Increased conjugated bilirubin, Grade ≥3",20 mg BID (n = 4),0 n (%)
same,"Treatment-related adverse event Nausea, All Grades",20 mg BID (n = 4),4 (100.0) n (%)
same,"Treatment-related adverse event Nausea, Grade ≥3",20 mg BID (n = 4),0 n (%)
same,"Treatment-related adverse event Prolonged electrocardiogram QT, All Grades",20 mg BID (n = 4),1 (25.0) n (%)
same,"Treatment-related adverse event Prolonged electrocardiogram QT, Grade ≥3",20 mg BID (n = 4),1 (25.0) n (%)
same,"Treatment-related adverse event Somnolence, All Grades",20 mg BID (n = 4),1 (25.0) n (%)
same,"Treatment-related adverse event Somnolence, Grade ≥3",20 mg BID (n = 4),0 n (%)
same,"Treatment-related adverse event Tachycardia, All Grades",20 mg BID (n = 4),0 n (%)
same,"Treatment-related adverse event Tachycardia, Grade ≥3",20 mg BID (n = 4),0 n (%)
same,"Treatment-related adverse event Vomiting, All Grades",20 mg BID (n = 4),1 (25.0) n (%)
same,"Treatment-related adverse event Vomiting, Grade ≥3",20 mg BID (n = 4),0 n (%)
same,Discontinued treatment: Adverse event,20 mg BID (n=4),0
same,"Treatment-related adverse event Asthenia, All Grades",40 mg BID (n = 4),4 (100.0) n (%)
same,"Treatment-related adverse event Asthenia, Grade ≥3",40 mg BID (n = 4),0 n (%)
same,"Treatment-related adverse event Decreased appetite, All Grades",40 mg BID (n = 4),3 (75.0) n (%)
same,"Treatment-related adverse event Decreased appetite, Grade ≥3",40 mg BID (n = 4),0 n (%)
same,"Treatment-related adverse event Decreased hemoglobin, All Grades",40 mg BID (n = 4),1 (25.0) n (%)
same,"Treatment-related adverse event Decreased hemoglobin, Grade ≥3",40 mg BID (n = 4),0 n (%)
same,"Treatment-related adverse event Decreased neutrophil count, All Grades",40 mg BID (n = 4),3 (75.0) n (%)
same,"Treatment-related adverse event Decreased neutrophil count, Grade ≥3",40 mg BID (n = 4),0 n (%)
same,"Treatment-related adverse event Decreased platelet count, All Grades",40 mg BID (n = 4),0 n (%)
same,"Treatment-related adverse event Decreased platelet count, Grade ≥3",40 mg BID (n = 4),0 n (%)
same,"Treatment-related adverse event Decreased white blood cell count, All Grades",40 mg BID (n = 4),3 (75.0) n (%)
same,"Treatment-related adverse event Decreased white blood cell count, Grade ≥3",40 mg BID (n = 4),0 n (%)
same,"Treatment-related adverse event Diarrhea, All Grades",40 mg BID (n = 4),1 (25.0) n (%)
same,"Treatment-related adverse event Diarrhea, Grade ≥3",40 mg BID (n = 4),0 n (%)
same,"Treatment-related adverse event Increased GGT, All Grades",40 mg BID (n = 4),1 (25.0) n (%)
same,"Treatment-related adverse event Increased GGT, Grade ≥3",40 mg BID (n = 4),0 n (%)
same,"Treatment-related adverse event Increased conjugated bilirubin, All Grades",40 mg BID (n = 4),1 (25.0) n (%)
same,"Treatment-related adverse event Increased conjugated bilirubin, Grade ≥3",40 mg BID (n = 4),0 n (%)
same,"Treatment-related adverse event Nausea, All Grades",40 mg BID (n = 4),3 (75.0) n (%)
same,"Treatment-related adverse event Nausea, Grade ≥3",40 mg BID (n = 4),0 n (%)
same,"Treatment-related adverse event Prolonged electrocardiogram QT, All Grades",40 mg BID (n = 4),1 (25.0) n (%)
same,"Treatment-related adverse event Prolonged electrocardiogram QT, Grade ≥3",40 mg BID (n = 4),0 n (%)
same,"Treatment-related adverse event Somnolence, All Grades",40 mg BID (n = 4),1 (25.0) n (%)
same,"Treatment-related adverse event Somnolence, Grade ≥3",40 mg BID (n = 4),0 n (%)
same,"Treatment-related adverse event Tachycardia, All Grades",40 mg BID (n = 4),1 (25.0) n (%)
same,"Treatment-related adverse event Tachycardia, Grade ≥3",40 mg BID (n = 4),0 n (%)
same,"Treatment-related adverse event Vomiting, All Grades",40 mg BID (n = 4),1 (25.0) n (%)
same,"Treatment-related adverse event Vomiting, Grade ≥3",40 mg BID (n = 4),0 n (%)
same,Discontinued treatment: Adverse event,40 mg BID (n=4),0
same,"Treatment-related adverse event Asthenia, All Grades",60 mg BID (n = 7),5 (71.4) n (%)
same,"Treatment-related adverse event Asthenia, Grade ≥3",60 mg BID (n = 7),0 n (%)
same,"Treatment-related adverse event Decreased appetite, All Grades",60 mg BID (n = 7),3 (42.9) n (%)
same,"Treatment-related adverse event Decreased appetite, Grade ≥3",60 mg BID (n = 7),0 n (%)
same,"Treatment-related adverse event Decreased hemoglobin, All Grades",60 mg BID (n = 7),5 (71.4) n (%)
same,"Treatment-related adverse event Decreased hemoglobin, Grade ≥3",60 mg BID (n = 7),3 (42.9) n (%)
same,"Treatment-related adverse event Decreased neutrophil count, All Grades",60 mg BID (n = 7),4 (57.1) n (%)
same,"Treatment-related adverse event Decreased neutrophil count, Grade ≥3",60 mg BID (n = 7),2 (28.6) n (%)
same,"Treatment-related adverse event Decreased platelet count, All Grades",60 mg BID (n = 7),3 (42.9) n (%)
same,"Treatment-related adverse event Decreased platelet count, Grade ≥3",60 mg BID (n = 7),1 (14.3) n (%)
same,"Treatment-related adverse event Decreased white blood cell count, All Grades",60 mg BID (n = 7),5 (71.4) n (%)
